Laboratory results: patent US4912215A, “Q-1047 Substances” (Yamanouchi Pharmaceutical Co., Ltd., priority 1989, dated 1990)
pIC50: −log10 of the molar value.

Key:
[1] = Solubility; type: physicochemical; details: for Solubility in dioxane, toluene, benzene, chloroform: toluene (printed tolueno)
[2] = Basic, neutral or acidic nature; type: physicochemical
[3] = Superoxide anion scavenging activity (method of McCord and Fridovich, xanthine/xanthine oxidase, ferricytochrome C); type: biochemical; details: for concentration dependency of superoxide anion scavenging activity: FIG. 30, FIG. 31, FIG. 32; for SOD-like activity of the detected/isolated substance: TLC-detected substance in preparation examples, test not detailed; for pIC50 / superoxide anion scavenging activity (in words): pH 7.8, 25° C.; for pIC50: xanthine/xanthine oxidase, ferricytochrome C, read-out: concentration of the compound which showed one unit of SOD activity (50% reduction of increase in absorbance at 550 nm); for superoxide anion scavenging activity (in words): same reaction system
Method: The compounds according to the invention were tested for superoxide anion scavenging activity by the method of McCord and Fridovich [J. Biol. Chem., 244 (22), 6049-6055 1969) . Thus, xanthine oxidase was added to 5 ×10^-2 M potassium phosphate buffer (pH 7.8) containing 1 ×10^-4 M EDTA, 1×10^-5 M ferricytochrome C and 5×10^-5 M xanthine to give a reaction system in which the rate of increase in absorbance at 550 nm as determined at 25° C. amounted to 0.025 per minute.

[4] = test system: Puromycin aminonucleoside (PAN) nephrosis rats; test: Effect on puromycin nephritis (PAN nephrosis rats); type: in vivo, Male Sprague-Dawley rats; details: 10 mg/kg i.p. daily
Method: Male Sprague-Dawley rats (weighing 180-200 g) were used. Puromycin aminonucleoside (PAN) nephrosis rats were prepared by single intraperitoneal administration of 50 mg/kg of PAN. Throughout the experiment, the rats were fed in metabolic cages and received a solid diet for rats and tap water ad libitum. Urine samples were collected at timed intervals for 24 hours and assayed for protein content. The test drug, suspended in a 0.5% methylcellulose solution, was intraperitoneally administered daily. After the administration period, kidneys were excised, and thin sections were prepared therefrom in the conventional manner and examined microscopically.

[5] = Antioxidant activity (decolorization of DPPH radical); type: biochemical; details: for reduction of absorbance due to DPPH at 517 nm: 0.1 mM DPPH in ethanol, 30 minutes; for antioxidant activity of the detected/isolated substance: TLC-detected or isolated substance in preparation examples, test not detailed
Method: Generally, substances called antioxidants can decolorize 1,1-diphenyl-2-picrylhydrazyl (DPPH), which is a stable radical.
Thus, DPPH was dissolved in ethanol to a concentration of 0.1 mM, the test compound was admixed with the solution and, 30 minutes later, the absorbance was determined at 517 nm.

[6] = Acute toxicity in mice; details: mouse, in vivo, ip

Row | Solubility in dioxane, chloroform, ethyl acetate, acetonitrile [1] | Solubility in toluene, benzene, ethanol, methanol [1] | Solubility in water, hexane [1] | Basic, neutral or acidic [2] | pIC50 [3] | Compound | concentration dependency of superoxide anion scavenging activity [3] | SOD-like activity of the detected/isolated substance [3] | urinary protein level ([4]; PAN 50 mg/kg i.p. single, compared with PAN alone on 7th day) | kidney tissue examination (glomerular changes or abnormalities) ([4]; compared with PAN alone) | superoxide anion scavenging activity (in words) [3] | reduction of absorbance due to DPPH at 517 nm [5] | antioxidant activity of the detected/isolated substance [5] | Solubility in dioxane, toluene, benzene, chloroform [1] | Solubility in ethyl acetate, acetonitrile, acetone, ethanol, methanol [1] | LD50 [6]
1 | Soluble | sparingly | insoluble | Neutral | 5.25 | CC1=CC(C)C(OC2CCC(O)C(C)O2)C2=CC(=O)C=C(NC(=O)C(C)C(=O)C(C)C1)C2=O (stereo not drawn) [Q-1047-A] | dependent on the concentration | SOD-like activity | – | – | – | – | – | – | – | –
2 | Soluble | sparingly | insoluble | Neutral | 4.46 | CC1=CC(C)C(OC2CCC(O)C(C)O2)C2=CC(=O)C=C(NC(=O)C(C)C(=O)C(C)C1)C2=O (stereo not drawn) [Q-1047-B] | dependent on the concentration | SOD-like activity | – | – | – | – | – | – | – | –
3 | Soluble | sparingly | insoluble | Neutral | 4.60 | CC1=CC(C)C(O)C2=CC(=O)C=C(NC(=O)C(C)C(=O)C(C)C1)C2=O (stereo not drawn) [Q-1047H-A-A] | concentration-dependent | SOD-like activity | almost no increase in urinary protein was observed | such changes or abnormalities were lesser in extent and lower in incidence | have superoxide anion scavenging activity | – | – | – | – | –
4 | Soluble | sparingly | insoluble | Neutral | 4.66 | CC1=CC(C)C(O)C2=CC(=O)C=C(NC(=O)C(C)C(=O)C(C)C1)C2=O (stereo not drawn) [Q-1047H-A-B] | concentration-dependent | SOD-like activity | – | – | have superoxide anion scavenging activity | – | – | – | – | –
5 | – | – | insoluble | Neutral | – | CC1=CC(C)C(O)c2cc(O)cc(c2O)NC(=O)C(C)C(=O)C(C)C1 (stereo not drawn) [Q-1047H-R-A] | – | – | – | – | – | reduced the absorbance due to DPPH | antioxidant activity | sparingly | Soluble | –

Row | Compound | Solubility in dioxane, chloroform, ethyl acetate, acetonitrile [1] | Solubility in toluene, benzene, ethanol, methanol [1] | Solubility in water, hexane [1] | Basic, neutral or acidic [2] | pIC50 [3] | concentration dependency of superoxide anion scavenging activity [3] | SOD-like activity of the detected/isolated substance [3] | urinary protein level ([4]; PAN 50 mg/kg i.p. single, compared with PAN alone on 7th day) | kidney tissue examination (glomerular changes or abnormalities) ([4]; compared with PAN alone) | superoxide anion scavenging activity (in words) [3] | reduction of absorbance due to DPPH at 517 nm [5] | antioxidant activity of the detected/isolated substance [5] | Solubility in dioxane, toluene, benzene, chloroform [1] | Solubility in ethyl acetate, acetonitrile, acetone, ethanol, methanol [1] | LD50 [6]
6 | CC1=CC(C)C(OC2CCC(O)C(C)O2)c2cc(O)cc(c2O)NC(=O)C(C)C(=O)C(C)C1 (stereo not drawn) [Q-1047R-A] | – | – | insoluble | Neutral | – | – | – | – | – | – | reduced the absorbance due to DPPH | antioxidant activity | sparingly | Soluble | > 500 mg/kg
